The target of this assay is T1, histamine H4 receptor (Homo sapiens, UniProt Q9H3N8).
T1 construct: expressed in transfected cells; host or cells: HEK293SFM cells (membrane preparation)
Kind of assay: Inhibition of histamine H4 receptor (Table A1; H4 membrane binding assay). The following applies: for IC50: histamine H4 receptor, "> a" = exceeds experiment limit. The method, then: Recombinant HEK293SFM cells expressing human H1, H2, H3, H4 or mouse H4 were harvested (Packard Filtermate Harvester) in ice-cold Tris-HCl, (50 mM, pH 7.5, Sigma) with protease inhibitors (Roche) and homogenized with a Polytron homogenizer. The homogenate was centrifuged for 5 minutes at 1000 g to remove nuclei and unbroken cells. The supernatant was centrifuged at 50000 g for 30 minutes, and the resulting pellet was re-suspended in ice-cold Tris-HCl (50 mM, pH 7.5). […] Nonspecific binding was determined by inclusion of 1000× unlabeled ligands. The bound radioactivity was separated by filtration through polyethyleneimine-treated GF/B filters (Perkin Elmer). The filters were washed eight times with ice-cold Tris-HCl (50 mM, pH 7.5), and radioactivity retained on the filters was measured by liquid scintillation counting. The binding data were evaluated with Prism. […]

The structures appear in SMILES notation.

One may read the IC50 as the concentration at which inhibition is half-maximal. Lower therefore signals higher potency. As usually defined, the inhibition is the percentage by which the read-out fell short of the control.

T1 sequence (Q9H3N8 whole entry): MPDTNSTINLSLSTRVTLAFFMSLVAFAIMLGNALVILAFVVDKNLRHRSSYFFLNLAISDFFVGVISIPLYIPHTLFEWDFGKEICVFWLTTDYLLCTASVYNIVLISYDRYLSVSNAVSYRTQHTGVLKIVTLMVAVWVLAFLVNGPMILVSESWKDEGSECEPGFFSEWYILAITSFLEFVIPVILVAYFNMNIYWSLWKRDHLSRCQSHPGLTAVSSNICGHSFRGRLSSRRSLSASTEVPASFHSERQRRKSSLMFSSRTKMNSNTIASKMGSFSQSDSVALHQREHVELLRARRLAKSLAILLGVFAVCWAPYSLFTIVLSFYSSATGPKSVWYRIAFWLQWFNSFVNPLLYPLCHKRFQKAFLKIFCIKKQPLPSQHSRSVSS

For the compound `CC1Cc2ccc(-c3ccnc(C(=O)N4CCC(N(C)C)C4)c3)cc2CN1c1cc(N2CCN(C)CC2)nc(N)n1` (single isomer, unassigned) [Example 67A, 4-[7-(2-{[3-(dimethylamino)pyrrolidin-1-yl]carbonyl}pyridin-4-yl)-3-methyl-3,4-dihydroisoquinolin-2(1H)-yl]-6-(4-methylpiperazin-1-yl)pyrimidin-2-amine], the IC50 came out at 56 nM.

For `CC1Cc2ccc(-c3ccnc(C(=O)N4CCC(N(C)C)C4)c3)cc2CN1c1cc(N2CCN(C)CC2)nc(N)n1` (single isomer, unassigned) [Example 67B, 4-[7-(2-{[3-(dimethylamino)pyrrolidin-1-yl]carbonyl}pyridin-4-yl)-3-methyl-3,4-dihydroisoquinolin-2(1H)-yl]-6-(4-methylpiperazin-1-yl)pyrimidin-2-amine], the IC50 was determined as 50 nM.

`CC1Cc2ccc(-c3ccnc(C(=O)N(C)CCN(C)C)c3)cc2CN1c1cc(N2CCN(C)CC2)nc(N)n1` (single isomer, unassigned) [Example 68A, 4-{2-[2-amino-6-(4-methylpiperazin-1-yl)pyrimidin-4-yl]-3-methyl-1,2,3,4-tetrahydroisoquinolin-7-yl}-N-[2-(dimethylamino)ethyl]-N-methylpyridine-2-carboxamide] displayed an IC50 of 30 nM.

For `CC1Cc2ccc(-c3ccnc(C(=O)N(C)CCN(C)C)c3)cc2CN1c1cc(N2CCN(C)CC2)nc(N)n1` (single isomer, unassigned) [Example 68B, 4-{2-[2-amino-6-(4-methylpiperazin-1-yl)pyrimidin-4-yl]-3-methyl-1,2,3,4-tetrahydroisoquinolin-7-yl}-N-[2-(dimethylamino)ethyl]-N-methylpyridine-2-carboxamide], the IC50 came out at 32 nM.

The compound `CC1Cc2ccc(-c3ccnc(C(=O)N[C@H](C)CO)c3)cc2CN1c1cc(N2CCN(C)CC2)nc(N)n1` (single isomer, unassigned) [Example 69] yielded an IC50 of 66 nM.

`CC1Cc2ccc(-c3ccnc(C(=O)N4CCN(C)CC4)c3)cc2CN1c1cc(N2CCN(C)CC2)nc(N)n1` (single isomer, unassigned) [Example 70, 4-[3-Methyl-7-{2-[(4-methylpiperazin-1-yl)carbonyl]pyridin-4-yl}-3,4-dihydroisoquinolin-2(1H)-yl]-6-(4-methylpiperazin-1-yl)pyrimidin-2-amine] showed an IC50 of 86 nM.

As for `CCNC(=O)c1ccc(-c2ccc3c(c2)CN(c2cc(N4CCN(C)CC4)nc(N)n2)C(C)C3)nc1` (single isomer, unassigned) [Example 71, 6-{2-[2-Amino-6-(4-methylpiperazin-1-yl)pyrimidin-4-yl]-3-methyl-1,2,3,4-tetrahydroisoquinolin-7-yl}-N-ethylnicotinamide], the IC50 amounted to 153 nM.

As for `CC1Cc2ccc(-c3ccc(C(=O)N(C)C)cn3)cc2CN1c1cc(N2CCN(C)CC2)nc(N)n1` (single isomer, unassigned) [Example 72, 6-{2-[2-Amino-6-(4-methylpiperazin-1-yl)pyrimidin-4-yl]-3-methyl-1,2,3,4-tetrahydroisoquinolin-7-yl}-N,N-dimethylnicotinamide], the IC50 was 269 nM.

In turn, `CC1Cc2ccc(-c3ccc(C(=O)N4CC(O)C4)cn3)cc2CN1c1cc(N2CCN(C)CC2)nc(N)n1` (single isomer, unassigned) [Example 73, 1-[(6-{2-[2-Amino-6-(4-methylpiperazin-1-yl)pyrimidin-4-yl]-3-methyl-1,2,3,4-tetrahydroisoquinolin-7-yl}pyridin-3-yl)carbonyl]azetidin-3-ol] came in with an IC50 of 195 nM.

`CC1Cc2ccc(-c3cncc(C(=O)N(C)C)c3)cc2CN1c1cc(N2CCN(C)CC2)nc(N)n1` (single isomer, unassigned) [Example 74, 5-{2-[2-Amino-6-(4-methylpiperazin-1-yl)pyrimidin-4-yl]-3-methyl-1,2,3,4-tetrahydroisoquinolin-7-yl}-N,N-dimethylnicotinamide] showed an IC50 of 148 nM.

In turn, `CC1Cc2ccc(-c3cncc(C(=O)N4CC(O)C4)c3)cc2CN1c1cc(N2CCN(C)CC2)nc(N)n1` (single isomer, unassigned) [Example 75, 1-[(5-{2-[2-Amino-6-(4-methylpiperazin-1-yl)pyrimidin-4-yl]-3-methyl-1,2,3,4-tetrahydroisoquinolin-7-yl}pyridin-3-yl)carbonyl]azetidin-3-ol] displayed an IC50 of 100 nM.

Take `CC1Cc2ccc(-c3cccc(C(=O)N(C)C)n3)cc2CN1c1cc(N2CCN(C)CC2)nc(N)n1` (single isomer, unassigned) [Example 76, 6-{2-[2-Amino-6-(4-methylpiperazin-1-yl)pyrimidin-4-yl]-3-methyl-1,2,3,4-tetrahydroisoquinolin-7-yl}-N,N-dimethylpyridine-2-carboxamide]: 1 µM produced 66% inhibition.

In turn, `CCNC(=O)c1ncc(-c2ccc3c(c2)CN(c2cc(N4CCN(C)CC4)nc(N)n2)C(C)C3)cn1` (single isomer, unassigned) [Example 77, 5-{2-[2-Amino-6-(4-methylpiperazin-1-yl)pyrimidin-4-yl]-3-methyl-1,2,3,4-tetrahydroisoquinolin-7-yl}-N-ethylpyrimidine-2-carboxamide] gave an IC50 of 149 nM.

Take `CC1Cc2ccc(-c3cnc(C(=O)N4CC(O)C4)nc3)cc2CN1c1cc(N2CCN(C)CC2)nc(N)n1` (single isomer, unassigned) [Example 78, 1-[(5-{2-[2-Amino-6-(4-methylpiperazin-1-yl)pyrimidin-4-yl]-3-methyl-1,2,3,4-tetrahydroisoquinolin-7-yl}pyrimidin-2-yl)carbonyl]azetidin-3-ol]: the IC50 was 135 nM.

Compound `CNC(=O)c1ccc(-c2ccc3c(c2)CN(c2cc(N4CCN(C)CC4)nc(N)n2)C(CO)C3)cn1` (single isomer, unassigned) [Example 81A, 5-[2-[2-amino-6-(4-methylpiperazin-1-yl)pyrimidin-4-yl]-3-(hydroxymethyl)-1,2,3,4-tetrahydroisoquinolin-7-yl]-N-methylpyridine-2-carboxamide] came in with an IC50 of 75 nM.

In the case of `CNC(=O)c1ccc(-c2ccc3c(c2)CN(c2cc(N4CCN(C)CC4)nc(N)n2)C(CO)C3)cn1` (single isomer, unassigned) [Example 81B, 5-[2-[2-amino-6-(4-methylpiperazin-1-yl)pyrimidin-4-yl]-3-(hydroxymethyl)-1,2,3,4-tetrahydroisoquinolin-7-yl]-N-methylpyridine-2-carboxamide], the IC50 was 34 nM.

`CC1Cc2ccc(-c3ccn(CC#N)n3)cc2CN1c1cc(N2CCN(C)CC2)nc(N)n1` (single isomer, unassigned) [Example 82A, (3-{2-[2-Amino-6-(4-methylpiperazin-1-yl)pyrimidin-4-yl]-3-methyl-1,2,3,4-tetrahydroisoquinolin-7-yl}-1H-pyrazol-1-yl)acetonitrile]: the IC50 was found to be 22 nM.

On to `CC1Cc2ccc(-c3ccn(CC#N)n3)cc2CN1c1cc(N2CCN(C)CC2)nc(N)n1` (single isomer, unassigned) [Example 82B, (3-{2-[2-Amino-6-(4-methylpiperazin-1-yl)pyrimidin-4-yl]-3-methyl-1,2,3,4-tetrahydroisoquinolin-7-yl}-1H-pyrazol-1-yl)acetonitrile], for which the inhibition at 1 µM came to 66%.

The compound `CC1Cc2ccc(-c3ccn(CCC#N)n3)cc2CN1c1cc(N2CCN(C)CC2)nc(N)n1` (single isomer, unassigned) [Example 83A, 3-(3-{2-[2-Amino-6-(4-methylpiperazin-1-yl)pyrimidin-4-yl]-3-methyl-1,2,3,4-tetrahydroisoquinolin-7-yl}-1H-pyrazol-1-yl)propanenitrile] came in with an IC50 of 33 nM.

`CC1Cc2ccc(-c3ccn(CCC#N)n3)cc2CN1c1cc(N2CCN(C)CC2)nc(N)n1` (single isomer, unassigned) [Example 83B, 3-(3-{2-[2-Amino-6-(4-methylpiperazin-1-yl)pyrimidin-4-yl]-3-methyl-1,2,3,4-tetrahydroisoquinolin-7-yl}-1,1-pyrazol-1-yl)propanenitrile] displayed an inhibition at 1 µM of 61%.

`CC1Cc2ccc(-c3ccn(CCO)n3)cc2CN1c1cc(N2CCN(C)CC2)nc(N)n1` (single isomer, unassigned) [Example 84A, 2-(3-{2-[2-Amino-6-(4-methylpiperazin-1-yl)pyrimidin-4-yl]-3-methyl-1,2,3,4-tetrahydroisoquinolin-7-yl}-1H-pyrazol-1-yl)ethanol] gave an IC50 of 30 nM.

Consider `CC1Cc2ccc(-c3ccn(CCO)n3)cc2CN1c1cc(N2CCN(C)CC2)nc(N)n1` (single isomer, unassigned) [Example 84B, 2-(3-{2-[2-Amino-6-(4-methylpiperazin-1-yl)pyrimidin-4-yl]-3-methyl-1,2,3,4-tetrahydroisoquinolin-7-yl}-1H-pyrazol-1-yl)ethanol], for which the inhibition at 1 µM turned out to be 52%.

Consider `CC1Cc2ccc(-c3ccn(C)n3)cc2CN1c1cc(N2CCN(C)CC2)nc(N)n1` (single isomer, unassigned) [Example 85A, 4-[3-Methyl-7-(1-methyl-1H-pyrazol-3-yl)-3,4-dihydroisoquinolin-2(1H)-yl]-6-(4-methylpiperazin-1-yl)pyrimidin-2-amine], for which the IC50 was 20 nM.

As for `CC1Cc2ccc(-c3ccn(C)n3)cc2CN1c1cc(N2CCN(C)CC2)nc(N)n1` (single isomer, unassigned) [Example 85B, 4-[3-Methyl-7-(1-methyl-1H-pyrazol-3-yl)-3,4-dihydroisoquinolin-2(1H)-yl]-6-(4-methylpiperazin-1-yl)pyrimidin-2-amine], the IC50 stood at 104 nM.

Values taken from patent US20130244999A1, “Substituted Heterocyclic Compounds” (Incyte Corporation, priority 2008, published 2013).
